According to patent US10246498B2, “Genetically encoded histone reporter allele constructs” (THE JOHNS HOPKINS UNIVERSITY, priority 2014, dated 2019):
“Also recorded” adds a separate entry of the source.

How the values were obtained:
H3K4 trimethylation = H3K4 trimethylation (H3K4me3) reporter allele, GFP fluorescence by FACS; format: cell-based; conditions: FIG. 18F
Source text: An H3K4 trimethylation reporter was also created (FIG. 5B). This reporter is based on the H3 tail on one end and the TBP associated factor III (TAFIII) […] on the other end; the TAFIII […] only identifies and binds to trimethylated K4 on H3. When the H3K4 site gets trimethylated, the TAFIII […] can bind to the modified H3 tail and bring the two parts of the separated GFP in close proximity. The activity of the epigenetic modification system can be quantified through fluorescence.
Epigenetic reporter alleles were synthesized (OriGene, Rockville, Md.) using published sequences for component elements (Baird et al. (1999) Proc. Natl. Acad. Sci. 96:11241-6; Souslova et al. (2007) BMC Biotechnol. 7:37). Single nucleotide mutations were created using the QuickChange Lightening kit (Agilent Technologies Inc, Santa Clara, Calif.). […] FACS data were analyzed using FlowJo (Tree Star Inc, Ashland, Oreg.). […]
Epigenetic reporter systems were created that monitor either H4 acetylation or H3K4 trimethylation machinery activity in an effort to determine whether there is an ongoing activity deficiency in cells from Kmt2d^+/βGeo mice (FIG. 18A). Both reporter alleles encode halves of green fluorescent protein separated by a flexible linker region (Baird et al. (1999) Proc. Natl. Acad. Sci. 96: 11241-6) with a histone tail and a histone reader at the N- and C-termini, respectively. […]

[1] = tested on: Kmt2d+/βGeo mouse model of Kabuki syndrome; assay: Morris water maze; format: in vivo; conditions: 10 mg/kg/day
Source text: Kmt2d^+/βGeo mice, also named Mll2Gt^(RRt024)Byg, were acquired from Bay Genomics (University of California). All experimental mice were on a mixed C57BL/6J and 129/SvEv background. Expected Mendelian ratios were observed when heterozygous animals were bred to wild-type. In heterozygous crosses, however, there was uniform embryonic lethality of homozygotes by ED12, the earliest developmental stage assayed. For treatment with AR-42, mice were orally gavaged daily with drug (Selleck Chemicals, Houston, Tex.) solubilized in vehicle (0.5% methylcellulose, 0.1% Tween-80, water) or with vehicle alone. Drug delivery information was kindly provided by Drs. […] For quantification of DCX positive cells, doses of 0, 5, 10 and 25 mg/kg/day were used. […] Maxillary protrusion was evaluated by ten investigators blinded to genotype and they were asked to rate maxillary protrusion on radiographs as either large (2) or small (1). […]
Mice were placed in a 1.1 meter diameter tank filled with room temperature water dyed with non-toxic white paint. […] Latency to reach the platform was measured during each trial. […] Average number of crossings of the platform's previous location was recorded. […] For all training and probe testing, data was recorded both manually and electronically with ANY-maze software (San Diego Instruments, San Diego, Calif.) when applicable. […]

For CC(C)[C@H](C(=O)Nc1ccc(C(=O)NO)cc1)c1ccccc1 [AR-42], the cell numbers (H3K4 trimethylation; higher doses) was “decreased cell numbers at higher doses”, the “response of the H3K4me3 indicator” value (H3K4 trimethylation; increasing levels of drug) was “dose dependent response” and the “frequency of platform crossing, probe trial” value [1] was “improved performance; also recorded: normalized”. The “escape latency during training, with versus without drug” value ([1]; Kmt2d+/βGeo animals) was “No significant difference”.
